According to patent US20240391931A1 (Bristol-Myers Squibb Company, priority 2021, published 2024):

Key:
[1] = target: T1, HER2 wildtype (WT) protein (Homo sapiens, UniProt P04626); assay: HER2 signaling (pHER2 Tyr1248/total HER2 MSD) in BT474 cells; type: cell-based; conditions: 1.5 hr compound, 1% FBS
T1 construct: BT474 and N87 cell lines which endogenously overexpress the HER2 wildtype (WT) protein; endogenous in cells; host or cells: BT474, N87
Procedure, shortened: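 BT474, N87 (HER2 WT) and NCI-H1781 (HER2 G776delinsVC) cells were treated for 1.5 h at 37° C in 1% FBS medium with compound at 0.0005–1.1 μM. pHER2 Tyr1248 was measured by MSD on whole-cell lysates and normalized to total HER2 as % DMSO. EC50 came from a variable-slope sigmoidal fit.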

EGFR = EGFR (Homo sapiens, UniProt P00533); assay: EGFR signaling (pEGFR Tyr1068/total EGFR MSD) in A431 cells; type: cell-based; set-up: endogenous in cells; host or cells: A431, N87; conditions: for EC50: A431 cells, read-out: A431 pEGFR EC50; for Selectivity A431 EC50/BT474 EC50: ratio A431 pEGFR EC50 to BT474 pHER2 EC50; for Selectivity A431 EC50/HEKYVMA EC50: ratio A431 pEGFR EC50 to HEK YVMA pHER2 EC50
EGFR, sequence (P00533 25-1210): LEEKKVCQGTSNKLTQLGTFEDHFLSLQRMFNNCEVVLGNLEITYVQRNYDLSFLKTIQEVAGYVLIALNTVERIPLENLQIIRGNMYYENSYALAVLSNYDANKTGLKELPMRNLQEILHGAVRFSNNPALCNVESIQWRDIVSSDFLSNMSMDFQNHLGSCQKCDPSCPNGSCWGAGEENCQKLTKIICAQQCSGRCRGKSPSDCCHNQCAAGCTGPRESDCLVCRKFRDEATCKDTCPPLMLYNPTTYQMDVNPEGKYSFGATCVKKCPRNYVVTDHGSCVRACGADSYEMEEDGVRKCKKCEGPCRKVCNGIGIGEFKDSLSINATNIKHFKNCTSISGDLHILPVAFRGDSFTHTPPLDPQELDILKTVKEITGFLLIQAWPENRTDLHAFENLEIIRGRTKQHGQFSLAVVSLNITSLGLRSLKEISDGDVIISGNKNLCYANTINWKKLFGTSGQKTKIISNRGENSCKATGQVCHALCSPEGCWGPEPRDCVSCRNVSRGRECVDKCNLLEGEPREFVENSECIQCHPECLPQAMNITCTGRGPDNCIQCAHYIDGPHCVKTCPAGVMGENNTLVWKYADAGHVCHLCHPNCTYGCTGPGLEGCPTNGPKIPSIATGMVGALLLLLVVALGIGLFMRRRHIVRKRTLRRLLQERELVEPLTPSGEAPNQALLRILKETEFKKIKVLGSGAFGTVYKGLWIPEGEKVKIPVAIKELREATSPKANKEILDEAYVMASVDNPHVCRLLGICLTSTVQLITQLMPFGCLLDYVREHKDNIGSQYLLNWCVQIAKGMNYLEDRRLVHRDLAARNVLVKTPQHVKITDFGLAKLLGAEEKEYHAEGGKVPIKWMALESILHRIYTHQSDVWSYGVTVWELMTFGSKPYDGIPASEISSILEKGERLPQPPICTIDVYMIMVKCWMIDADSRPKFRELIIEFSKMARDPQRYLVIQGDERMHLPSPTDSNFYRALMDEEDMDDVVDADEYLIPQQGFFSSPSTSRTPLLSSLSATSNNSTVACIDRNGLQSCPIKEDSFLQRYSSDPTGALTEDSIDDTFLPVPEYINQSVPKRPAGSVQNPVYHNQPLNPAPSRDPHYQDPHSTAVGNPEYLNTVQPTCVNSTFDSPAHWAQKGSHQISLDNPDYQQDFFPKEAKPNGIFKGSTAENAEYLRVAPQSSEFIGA
Procedure, shortened: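 EC50 was fitted with variable Hill slope from MSD pTyr1068/total EGFR ratios, expressed as % DMSO control. A431 cells were starved overnight, then exposed 1.5 h to eight concentrations from 10 to 0.005 μM in 1% FBS before a 10-min 100 ng/mL EGF pulse.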

T1 sequence (P04626 23-1255): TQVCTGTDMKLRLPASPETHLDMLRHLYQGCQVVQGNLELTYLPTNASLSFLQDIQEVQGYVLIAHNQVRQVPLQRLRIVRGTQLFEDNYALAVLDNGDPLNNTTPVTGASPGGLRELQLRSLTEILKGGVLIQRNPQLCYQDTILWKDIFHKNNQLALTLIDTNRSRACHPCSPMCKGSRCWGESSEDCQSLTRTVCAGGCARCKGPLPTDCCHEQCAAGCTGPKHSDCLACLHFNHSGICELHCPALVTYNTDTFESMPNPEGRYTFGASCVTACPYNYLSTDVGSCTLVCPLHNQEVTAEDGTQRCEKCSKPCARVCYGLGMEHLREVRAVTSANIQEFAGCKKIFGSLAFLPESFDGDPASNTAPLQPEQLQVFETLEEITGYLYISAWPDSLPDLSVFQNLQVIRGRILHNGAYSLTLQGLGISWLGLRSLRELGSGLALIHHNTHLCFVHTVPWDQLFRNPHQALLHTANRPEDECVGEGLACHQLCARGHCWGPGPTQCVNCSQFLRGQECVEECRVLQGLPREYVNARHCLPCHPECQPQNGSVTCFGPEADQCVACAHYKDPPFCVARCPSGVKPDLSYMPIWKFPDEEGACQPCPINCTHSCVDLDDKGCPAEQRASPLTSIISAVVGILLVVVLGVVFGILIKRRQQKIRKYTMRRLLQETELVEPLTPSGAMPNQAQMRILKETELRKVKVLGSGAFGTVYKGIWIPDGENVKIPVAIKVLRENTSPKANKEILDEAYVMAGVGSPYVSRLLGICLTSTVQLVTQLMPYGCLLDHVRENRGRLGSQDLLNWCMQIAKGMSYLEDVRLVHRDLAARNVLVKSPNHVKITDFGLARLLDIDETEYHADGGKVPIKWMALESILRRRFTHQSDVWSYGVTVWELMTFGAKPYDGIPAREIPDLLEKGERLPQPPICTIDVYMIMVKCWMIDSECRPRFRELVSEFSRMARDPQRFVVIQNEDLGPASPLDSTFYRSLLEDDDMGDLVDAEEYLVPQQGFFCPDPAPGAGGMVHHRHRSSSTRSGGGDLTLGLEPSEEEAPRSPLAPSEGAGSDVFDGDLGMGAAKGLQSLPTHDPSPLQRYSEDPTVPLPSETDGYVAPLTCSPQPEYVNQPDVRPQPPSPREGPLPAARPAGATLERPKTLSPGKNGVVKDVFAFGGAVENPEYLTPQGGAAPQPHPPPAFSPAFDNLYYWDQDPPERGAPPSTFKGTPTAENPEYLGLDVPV

Row | EC50 [1] | EC50 (EGFR) | Selectivity A431 EC50/BT474 EC50 (EGFR) | Selectivity A431 EC50/HEKYVMA EC50 (EGFR) | Compound
1 | < 100 nM | 100 to 1000 nM | D (D: ≥ 5 and < 10) | D (D: ≥ 5 and < 10) | Cc1ccc(Oc2ccc(Nc3ncnc4sc5c(c34)CCN(C(=O)/C=C/CNC3CCC3)C5)cc2C)cn1 [Compound 54]
2 | < 100 nM | 100 to 1000 nM | B (B: ≥ 20 and < 100) | B (B: ≥ 20 and < 100) | Cc1ccc(Oc2ccc(Nc3ncnc4sc5c(c34)CCN(C(=O)/C=C/CN3CC=CCC3)C5)cc2C)cn1 [Compound 55]
3 | 350 to 1000 nM | 1000 to 10000 nM | C (C: ≥ 10 and < 20) | B (B: ≥ 20 and < 100) | CON(C)C/C=C/C(=O)N1CCc2c(sc3ncnc(Nc4ccc(Oc5ccc(C)nc5)c(C)c4)c23)C1 [Compound 56]
4 | < 100 nM | < 100 nM | D (D: ≥ 5 and < 10) | D (D: ≥ 5 and < 10) | Cc1ccc(Oc2ccc(Nc3ncnc4sc5c(c34)CCN(C(=O)/C=C/CN3CC4(C3)CS(=O)(=O)C4)C5)cc2C)cn1 [Compound 57]
5 | 100 to 350 nM | 1000 to 10000 nM | C (C: ≥ 10 and < 20) | D (D: ≥ 5 and < 10) | Cc1ccc(Oc2ccc(Nc3ncnc4sc5c(c34)CCN(C(=O)/C=C/CN3CCN4C(=O)CCC4C3)C5)cc2C)cn1 (stereo not shown) [Compound 58]
6 | < 100 nM | 100 to 1000 nM | B (B: ≥ 20 and < 100) | C (C: ≥ 10 and < 20) | COCCN1CCN(C/C=C/C(=O)N2CCc3c(sc4ncnc(Nc5ccc(Oc6ccc(C)nc6)c(C)c5)c34)C2)CC1 [Compound 59]
7 | 350 to 1000 nM | > 10000 nM | B (B: ≥ 20 and < 100) | C (C: ≥ 10 and < 20) | Cc1ccc(Oc2ccc(Nc3ncnc4sc5c(c34)CCN(C(=O)/C=C/CN3CCn4cc(C(F)(F)F)nc4C3)C5)cc2C)cn1 [Compound 61]
8 | < 100 nM | 100 to 1000 nM | B (B: ≥ 20 and < 100) | E (E: >1 and < 5) | Cc1ccc(Oc2ccc(Nc3ncnc4sc5c(c34)CCN(C(=O)/C=C/CN3CCC(n4ccnc4)CC3)C5)cc2C)cn1 [Compound 62]
9 | < 100 nM | 100 to 1000 nM | C (C: ≥ 10 and < 20) | E (E: >1 and < 5) | Cc1cc(Nc2ncnc3sc4c(c23)CCN(C(=O)/C=C/CN(C)C)C4)ccc1Oc1cccc(B(O)O)c1 [Compound 64, (E)-(3-(4-((7-(4-(dimethylamino)but-2-enoyl)-5,6,7,8-tetrahydropyrido[4′,3′:4,5]thieno[2,3-d]pyrimidin-4-yl)amino)-2-methylphenoxy)phenyl)boronic acid]
10 | < 100 nM | 100 to 1000 nM | D (D: ≥ 5 and < 10) | E (E: >1 and < 5) | Cc1ccc(Oc2ccc(Nc3ncnc4sc5c(c34)CCN(C(=O)/C=C/CNCCO)C5)cc2C)cn1 [Compound 65]
11 | < 100 nM | 100 to 1000 nM | C (C: ≥ 10 and < 20) | C (C: ≥ 10 and < 20) | Cc1ccc(Oc2ccc(Nc3ncnc4sc5c(c34)CCN(C(=O)/C=C/CN3C[C@H]4CC[C@@H](C3)O4)C5)cc2C)cn1 [Compound 66]
12 | < 100 nM | < 100 nM | D (D: ≥ 5 and < 10) | D (D: ≥ 5 and < 10) | Cc1ccc(Oc2ccc(Nc3ncnc4sc5c(c34)CCN(C(=O)/C=C/CN3CCC4(CCOC4)C3)C5)cc2C)cn1 (stereo not shown) [Compound 67]
13 | < 100 nM | < 100 nM | D (D: ≥ 5 and < 10) | E (E: >1 and < 5) | Cc1ccc(Oc2ccc(Nc3ncnc4sc5c(c34)CCN(C(=O)/C=C/CN[C@H]3CC[C@H](OC4CC4)CC3)C5)cc2C)cn1 [Compound 68]
14 | < 100 nM | < 100 nM | A (A: ≥100) | D (D: ≥ 5 and < 10) | Cc1ccc(Oc2ccc(Nc3ncnc4sc5c(c34)CCN(C(=O)/C=C/CN[C@H]3CC[C@H](OC(F)F)CC3)C5)cc2C)cn1 [Compound 69]
15 | < 100 nM | < 100 nM | D (D: ≥ 5 and < 10) | E (E: >1 and < 5) | Cc1ccc(Oc2ccc(Nc3ncnc4sc5c(c34)CCN(C(=O)/C=C/CN[C@H]3CC[C@H](OCC(F)(F)F)CC3)C5)cc2C)cn1 [Compound 70]
16 | < 100 nM | < 100 nM | A (A: ≥100) | E (E: >1 and < 5) | Cc1ccc(Oc2ccc(Nc3ncnc4sc5c(c34)CCN(C(=O)/C=C/CNC3CCC(C(=O)N(C)C)CC3)C5)cc2C)cn1 (stereo not shown) [Compound 71]
17 | < 100 nM | < 100 nM | D (D: ≥ 5 and < 10) | E (E: >1 and < 5) | Cc1ccc(Oc2ccc(Nc3ncnc4sc5c(c34)CCN(C(=O)/C=C/CNC34CCC(C#N)(CC3)CC4)C5)cc2C)cn1 [Compound 72]
18 | < 100 nM | 100 to 1000 nM | D (D: ≥ 5 and < 10) | E (E: >1 and < 5) | Cc1ccc(Oc2ccc(Nc3ncnc4sc5c(c34)CCN(C(=O)/C=C/CN[C@H]3CCC[C@H](O)C3)C5)cc2C)cn1 [Compound 73]
19 | < 100 nM | 100 to 1000 nM | D (D: ≥ 5 and < 10) | D (D: ≥ 5 and < 10) | Cc1ccc(Oc2ccc(Nc3ncnc4sc5c(c34)CCN(C(=O)/C=C/CN3CCC(O)C3)C5)cc2C)cn1 (stereo not shown) [Compound 74]
20 | < 100 nM | < 100 nM | D (D: ≥ 5 and < 10) | D (D: ≥ 5 and < 10) | Cc1ccc(Oc2ccc(Nc3ncnc4sc5c(c34)CCN(C(=O)/C=C/CN[C@@H](C)CO)C5)cc2C)cn1 [Compound 75]
21 | < 100 nM | < 100 nM | C (C: ≥ 10 and < 20) | C (C: ≥ 10 and < 20) | Cc1ccc(Oc2ccc(Nc3ncnc4sc5c(c34)CCN(C(=O)/C=C/CN3CC4CC4C3)C5)cc2C)cn1 (stereo not shown) [Compound 76]
22 | < 100 nM | 1000 to 10000 nM | B (B: ≥ 20 and < 100) | D (D: ≥ 5 and < 10) | Cc1cc(Nc2ncnc3sc4c(c23)CCN(C(=O)/C=C/CN2CC3CC2CO3)C4)ccc1Oc1ccc2ncnn2c1 (stereo not shown) [Compound 77]
23 | < 100 nM | 100 to 1000 nM | B (B: ≥ 20 and < 100) | B (B: ≥ 20 and < 100) | Cc1cc(Nc2ncnc3sc4c(c23)CCN(C(=O)/C=C/CN(C)C(C)(C)C)C4)ccc1Oc1ccc2ncnn2c1 [Compound 80]
24 | < 100 nM | 100 to 1000 nM | B (B: ≥ 20 and < 100) | C (C: ≥ 10 and < 20) | Cc1cc(Nc2ncnc3sc4c(c23)CCN(C(=O)/C=C/CN2CC3C(CO)C3C2)C4)ccc1Oc1ccc2ncnn2c1 (stereo not shown) [Compound 81]
25 | < 100 nM | 1000 to 10000 nM | A (A: ≥100) | B (B: ≥ 20 and < 100) | Cc1cc(Nc2ncnc3sc4c(c23)CCN(C(=O)/C=C/CN2CC(C)OC(C)C2C)C4)ccc1Oc1ccc2ncnn2c1 (stereo not shown) [Compound 83]
26 | < 100 nM | > 10000 nM | A (A: ≥100) | B (B: ≥ 20 and < 100) | Cc1cc(Nc2ncnc3sc4c(c23)CCN(C(=O)/C=C/CN2CC(C)(C)OC(C)(C)C2)C4)ccc1Oc1ccc2ncnn2c1 [Compound 84]
27 | 100 to 350 nM | > 10000 nM | B (B: ≥ 20 and < 100) | A (A: ≥100) | C=C(CN1CCc2c(sc3ncnc(Nc4ccc(Oc5ccc(C)nc5)c(C)c4)c23)C1)C(=O)OCC [Compound 86, Ethyl 2-((4-((3-methyl-4-((6-methylpyridin-3-yl)oxy)phenyl)amino)-5,8-dihydropyrido[4′,3′:4,5]thieno[2,3-d]pyrimidin-7(6H)-yl)methyl)acrylate]
28 | < 100 nM | < 100 nM | B (B: ≥ 20 and < 100) | D (D: ≥ 5 and < 10) | O=C(/C=C/CN1CC2CC1CO2)N1CCc2c(sc3ncnc(Nc4ccc(Oc5ccc6ncnn6c5)c(Cl)c4)c23)C1 (stereo not shown) [Compound 87]
29 | < 100 nM | < 100 nM | C (C: ≥ 10 and < 20) | C (C: ≥ 10 and < 20) | O=C(/C=C/CN1CC2CCC(C2)C1)N1CCc2c(sc3ncnc(Nc4ccc(Oc5ccc6ncnn6c5)c(Cl)c4)c23)C1 [Compound 88]

Row | Compound | EC50 [1] | EC50 (EGFR) | Selectivity A431 EC50/BT474 EC50 (EGFR) | Selectivity A431 EC50/HEKYVMA EC50 (EGFR)
30 | Cc1cc(Nc2ncnc3sc4c(c23)CCN(C(=O)/C=C/CN2CC3CC(C3)C2)C4)ccc1Oc1ccc2ncnn2c1 [Compound 82] | < 100 nM | 100 to 1000 nM | C (C: ≥ 10 and < 20) | C (C: ≥ 10 and < 20)
31 | O=C(/C=C/CN1CC2CC(C2)C1)N1CCc2c(sc3ncnc(Nc4ccc(Oc5ccc6ncnn6c5)c(Cl)c4)c23)C1 [Compound 85] | < 100 nM | 100 to 1000 nM | C (C: ≥ 10 and < 20) | C (C: ≥ 10 and < 20)
